Data published in patent publication US20170239239A1, “Method for Inducing a Sustained Immune Response” (Immune Therapeutics Inc., priority 2016, published 2017).

Tests used:
[1] = system: advanced pancreatic cancer; details: historical controls; cited from earlier work
[2] = system: IBS patients; test: Open-label study of PTI-901 in 42 IBS patients; format: in vivo, human
Experimental: Forty-two IBS patients participated in an open-label study. Participants received 0.5 mg PTI-901/day for 4 weeks and were evaluated during baseline, during treatment, and at 4-week follow-up. Patients recorded degree of abdominal pain, stool urgency, consistency, and frequency. Primary outcomes were number of pain-free days and overall symptom relief, evaluated by a global assessment score. Data were analyzed per protocol. Global assessment improved in 76% of 42 patients. During treatment, the mean weekly number of pain-free days increased from 0.5+/−1 to 1.25+/−2.14 (P=0.011).

In the case of `Nc1ccn([C@@H]2O[C@H](CO)[C@@H](O)C2(F)F)c(=O)n1` [gemcitabine], the Clinical benefit response [1] is given as 23.8%.

In the case of `O=c1[nH]cc(F)c(=O)[nH]1` [5-fluorouracil (5-FU), 5-fluorouracil], the Clinical benefit response [1] is listed as 4.8%.

For `Cl.O=C1CC[C@@]2(O)[C@H]3Cc4ccc(O)c5c4[C@@]2(CCN3CC2CC2)[C@H]1O5` [PTI-901], the Global assessment improved ([2]; 0.5 mg/day for 4 weeks, of 42 patients) was 76%, the “mean weekly number of pain-free days” value ([2]; during treatment, from 0.5+/−1, P=0.011) was 1.25+/−2.14 and the adverse reactions ([2]; human, in vivo) was “no significant adverse reactions”.
